# Data: US9221761B2, “Method for inhibition of deubiquitinating activity” (Vivolux AB, priority 2011, dated 2015)
# Key:
# [1] = tested on: MelJuSo Ub-YFP reporter cell line; assay: Proteasome inhibition in reporter cell line, YFP accumulation in IncuCyte-FLR; format: cell-based; conditions: YFP accumulation measured for 48 hours; for MeJuSo-UB, IncuCyte lowest effective conc.: Table 1; for MeJuSo-UB, lowest effective conc.: Table 2
# From the text: Cell culture. MCF7 cells are maintained in MEM/10% fetal calf serum. HCT-116 p53+/+, p53−/−, Bcl-2+/+, PUMA−/− and BAX−/− cells are maintained in McCoy's 5A modified medium/10% fetal calf serum. The HCT-116 p53+/+, p53−/−, PUMA−/− and BAX−/− are generated as described (25). The HCT-116 Bcl-2+/+ cell line was generated by transfecting parental HCT-116 p53+/+ cells with pCEP4 Bcl-2 (Addgene plasmid 16461) (26) and isolating high expression clones. FaDu and LLC3 cells are maintained in DMEM high glucose medium supplemented with 10% fetal calf serum, Na pyruvate, Hepes and non-essential amino acids. 4T1.12B carcinoma cells are maintained in RPMI medium supplemented with 10% fetal calf serum. The proteasome reporter cell line MelJuSo Ub-YFP was generated as described (12). Cells were maintained in Dulbecco's Modified Eagle's Medium/10% fetal calf serum. […] The retinal epithelial cell line was generated as described (28). All cells are maintained at 37° C. in 5% CO2.
# The compound of the invention induces proteasome inhibition. The reporter cell line MelJuSo Ub-YFP, which is engineered to accumulate yellow fluorescent protein (YFP) upon proteasome inhibition (12), was used for compound evaluation. The accumulation of YFP was measured for 48 hours in an IncuCyte-FLR system (Essen Bioscience, Essen, UK), which is an automated fluorescence microscope. Numbers of positive cells per field were used as a measure of proteasome inhibition.
# HCT116 = assay: FMCA (Fluorometric Microculture Cytotoxicity Assay) cytotoxicity; format: cell-based; conditions: 72 hours of continuous compound exposure
# Experimental: FIGS. 1a to 1o are diagrams illustrating induction of dose-dependent cytotoxicity after 72 hours of continuous compound exposure to the reporter cell line HCT-116 by embodiments of the compound of the invention, as measured FMCA (Fluorometric Microculture Cytotoxicity Assay), as well as absence of such induction by structurally related compounds not comprised by the invention. Treated cells were compared to untreated controls (survival index);
# Determination of cell apoptosis and viability. For determination of apoptosis parental HCT-116 p53+/+ cells are treated with the increasing doses of the compound of the invention for 24 h. […] HCT-116 cells are seeded in 96-well microtiter plates at 10,000 cells per well and incubated overnight. Cells are treated with indicated drug for 24 h. At the end of the incubation period, NP40 is added to the tissue culture medium to 0.1% and 25 μl of the content of each well was assayed using the M30-Apoptosense® ELISA as previously described (31). Cell viability is determined by measuring acid phosphatase activity or using the FMCA method (32). For the acid phosphatase activity cells are seeded at 5000 cells per well in 96-well culture plates and incubated for 12 h at 37° C. Compounds are added to the cells in growth media and incubated for 72 h at 37° C. Cells are washed with 200 μl warm PBS. 100 μl of para-nitrophenyl phosphate (pNPP, 2 mg/ml) in Na acetate buffer pH 5 (NaAc 0.1 M, 0.1% Triton-X-100) is added per well. Cells are incubated for 2 h after which reaction was stopped by addition of 1N NaOH. Absorbance is measured at 405 nm. The dose-dependent cytotoxicity of a number of embodiments of the compound of the invention is illustrated in FIGS. 1a-1o.
# For the FMCA assay cells are seeded in the drug-prepared 384-well plates using the pipetting robot Precision 2000 (Bio-Tek Instruments Inc., Winooski, Vt.). The plates are incubated for 72 h and then transferred to an integrated HTS SAIGAN Core System consisting of an ORCA robot (Beckman Coulter) with CO2 incubator (Cytomat 2C, Kendro, Sollentuna, Sweden), dispenser module (Multidrop 384, Titertek, Huntsville, Ala.), washer module (ELx 405, Bio-Tek Instruments Inc), delidding station, plate hotels, barcode reader (Beckman Coulter), liquid handler (Biomek 2000, Beckman Coulter) and a multipurpose reader (FLUOstar Optima, BMG Labtech GmbH, Offenburg, Germany) for automated FMCA. Survival index (SI) is defined as the fluorescence of test wells in percentage of controls with blank values subtracted.
# FIGS. 3b, 3d, 3f are diagrams illustrating the cytotoxicity of compounds of the invention nos. 1546, 1547, and 1570 with a 7-membered ring moiety in comparison to structurally corresponding compounds not comprised by the invention with a 6-membered ring moiety. Their induction of dose-dependent cytotoxicity was determined after 72 hours of continuous compound exposure to the reporter cell line HCT-116. Treated cells were compared with untreated controls. Cytotoxicity is visualized as survival index (SI) over the range of about 90% SI to about 0% SI in dependence on compound concentration.
SMILES,"MeJuSo-UB, IncuCyte lowest effective conc. [1]","MeJuSo-UB, lowest effective conc. [1]",IC50 (HCT116; Table 2),other results
"O=C1/C(=C/c2ccccc2)CCNC/C1=C\c1ccccc1 [Compound 1516, (3E,5E)-3,5-Bis(phenylmethylidene)azepan-4-one]",1.2 µM,,,
O=C(O)C(F)(F)F.O=C1/C(=C/c2ccc([N+](=O)[O-])cc2)CCN(C(=O)[C@H]2CCCN2)C/C1=C\c1ccc([N+](=O)[O-])cc1 [Compound 1505],,16 µM,,
O=C1/C(=C/c2ccc(F)c([N+](=O)[O-])c2)CCN(C(=O)Cc2ccccn2)C/C1=C\c1ccc(F)c([N+](=O)[O-])c1 [Compound 1648],,0.5 µM,0.8 µM,
CN1CCC(=Cc2ccc(F)cc2)C(=O)C(=Cc2ccc(F)cc2)C1 [Compound 1564],16 µM,,,IC50 (HCT116; Table 1): 0.9 µM
O=C1C(=Cc2ccc(Cl)cc2)CCN(C(=O)Cc2ccccc2)CC1=Cc1ccc(Cl)cc1 [Compound 1635],,2 µM,1.4 µM,
O=C1C(=Cc2ccc([N+](=O)[O-])cc2)CCNCC1=Cc1ccc(F)cc1 [Compound 1596],2 µM,,,IC50 (HCT116; Table 1): 2.6 µM
CC(=O)OCC(=O)N1CC/C(=C\c2cc(F)c(F)c(F)c2)C(=O)/C(=C/c2cc(F)c(F)c(F)c2)C1 [Compound 1651],,0.5 µM,0.8 µM,
COc1ccc(C=C2CN(C(C)=O)CCC(=Cc3ccc([N+](=O)[O-])cc3)C2=O)cc1 [Compound 1581],,8 µM,7.2 µM,
CC(=O)N1CCC(=Cc2ccc([N+](=O)[O-])cc2)C(=O)C(=Cc2ccc([N+](=O)[O-])cc2)C1 [Compound 1567],,0.5 µM,0.6 µM,
O=C1/C(=C/c2ccc(C(F)(F)F)cc2)CCN(C(=O)Cc2ccccn2)C/C1=C\c1ccc(C(F)(F)F)cc1 [Compound 1644],,1 µM,1.4 µM,
CN1CCC(=Cc2ccc([N+](=O)[O-])cc2)C(=O)C(=Cc2ccc([N+](=O)[O-])cc2)C1 [Compound 1614],8 µM,,,IC50 (HCT116; Table 1): 7.4 µM
O=C1/C(=C/c2cc(F)c(F)c(F)c2)CCN(C(=O)Cc2ccccn2)C/C1=C\c1cc(F)c(F)c(F)c1 [Compound 1653],,1 µM,0.71 µM,
CN1CCC(=Cc2ccc(F)c(C(F)(F)F)c2)C(=O)C(=Cc2ccc(F)c(C(F)(F)F)c2)C1 [Compound 1609],1 µM,,,IC50 (HCT116; Table 1): 1.4 µM
O=C1C(=Cc2ccc(F)c([N+](=O)[O-])c2)CCNCC1=Cc1ccc(F)c([N+](=O)[O-])c1 [Compound 1562],0.25 µM,,,IC50 (HCT116; Table 1): 0.5 µM
O=C1C(=Cc2cc(F)cc(C(F)(F)F)c2)CCNCC1=Cc1cc(F)cc(C(F)(F)F)c1 [Compound 1611],0.5 µM,,,IC50 (HCT116; Table 1): 1.1 µM
CC(=O)N1CCC(=Cc2ccc(C(F)(F)F)cc2)C(=O)C(=Cc2ccc(C(F)(F)F)cc2)C1 [Compound 1627],,1 µM,0.7 µM,
CC(=O)N1CCC(=Cc2ccc(F)c(Cl)c2)C(=O)C(=Cc2ccc(F)c(Cl)c2)C1 [Compound 1631],,32 µM,1 µM,
O=C1C(=Cc2ccc(Cl)cc2)CCN(C(=O)c2cccs2)CC1=Cc1ccc(Cl)cc1 [Compound 1638],,2 µM,2 µM,

SMILES,"MeJuSo-UB, IncuCyte lowest effective conc. [1]","MeJuSo-UB, lowest effective conc. [1]",IC50 (HCT116; Table 2),other results
O=C1C(=Cc2ccc([N+](=O)[O-])cc2)CCNCC1=Cc1ccc([N+](=O)[O-])cc1 [Compound 1537],,,,IC50 (HCT116; Table 1): 4.1 µM
CCOc1cc(CC(=O)N2CCC(=Cc3ccc(Cl)cc3)C(=O)C(=Cc3ccc(Cl)cc3)C2)ccc1O [Compound 1639],,1 µM,1.2 µM,
O=C1C(=Cc2ccc(Cl)c(C(F)(F)F)c2)CCN(C(=O)Cc2cccnc2)CC1=Cc1ccc(Cl)c(C(F)(F)F)c1 [Compound 1655],,1 µM,1 µM,
CC(=O)N1CCC(=Cc2ccc(Cl)c(F)c2)C(=O)C(=Cc2ccc(Cl)c(F)c2)C1 [Compound 1630],,0.5 µM,0.9 µM,
O=C1C(=Cc2ccc(F)cc2)CCNCC1=Cc1ccc(Cl)cc1 [Compound 1582],2 µM,,,IC50 (HCT116; Table 1): 1.7 µM
"COc1ccc(/C=C2\CN(C)CC/C(=C\c3ccc(F)cc3)C2=O)cc1 [Compound 1577, (3E,5E)-5-[(4-fluorophenyl)methylidene]-3-[(4-methoxyphenyl)methylidene]-1-methylazepan-4-one]",8 µM,,,"IC50 (HCT116; Homo sapiens, HCT-116, Table 1): 4.9 µM"
CC(=O)N1CCC(=Cc2ccc([N+](=O)[O-])cc2)C(=O)C(=Cc2ccc(Cl)cc2)C1 [Compound 1597],,1 µM,1.3 µM,
CC(=O)OCCC(=O)N1CCC(=Cc2ccc(Cl)c(C(F)(F)F)c2)C(=O)C(=Cc2ccc(Cl)c(C(F)(F)F)c2)C1 [Compound 1666],,1 µM,1.3 µM,
"CN1CC/C(=C\c2ccc([N+](=O)[O-])cc2)C(=O)/C(=C/c2ccc([N+](=O)[O-])cc2)C1 [Compound 1563, (3E,5E)-1-methyl-3,5-bis[(4-nitrophenyl)methylidene]azepan-4-one]",0.5 µM,,,"IC50 (HCT116; Homo sapiens, HCT-116, Table 1): 1.5 µM"
"O=C1/C(=C/c2cccc([N+](=O)[O-])c2)CCNC/C1=C\c1ccccc1 [Compound 1560, (3E,5E)-5-[(3-nitrophenyl)methylidene]-3-(phenylmethylidene)azepan-4-one]",,,,"IC50 (HCT116; Homo sapiens, HCT-116, Table 1): 1 µM"
O=C1C(=Cc2ccc(C(F)(F)F)cc2)CCN(C(=O)Cc2cccnc2)CC1=Cc1ccc(C(F)(F)F)cc1 [Compound 1641],,2 µM,2.7 µM,
O=C(Cc1ccccn1)C(=O)N1CCC(=Cc2ccc(Cl)c(C(F)(F)F)c2)C(=O)C(=Cc2ccc(Cl)c(C(F)(F)F)c2)C1 [Compound 1658],,0.5 µM,0.8 µM,
O=C1C(=Cc2ccc(Cl)cc2)CCN(C(=O)C2CCC2)CC1=Cc1ccc(Cl)cc1 [Compound 1527],,2 µM,,
"O=C1/C(=C/c2ccc(Cl)cc2)CCNC/C1=C\c1ccc(Cl)cc1 [Compound 1518, (3E,5E)-3,5-bis[(4-chlorophenyl)methylidene]azepan-4-one]",1.6 µM,,,
"O=C(O)C(F)(F)F.O=C1/C(=C/c2ccc([N+](=O)[O-])cc2)CCN(C(=O)[C@H]2CCCN2)C/C1=C\c1ccc([N+](=O)[O-])cc1 [Compound 1505, (2R)-2-{[(3E,5E)-3,5-bis[(4-nitrophenyl)methylidene]-4-oxoazepan-1-carbonyl}pyrrolidinium trifluoroacetate]",,,5.2 µM,
O=C1C(=Cc2cccc([N+](=O)[O-])c2)CCNCC1=Cc1cccc([N+](=O)[O-])c1 [Compound 1535],,,,IC50 (HCT116; Table 1): 5.9 µM
O=C1C(=Cc2ccccc2[N+](=O)[O-])CCNCC1=Cc1ccccc1[N+](=O)[O-] [Compound 1536],,,,IC50 (HCT116; Table 1): 6.9 µM
